# Legend:
# [1] = parameters: species or system Long-Evans female rats; settings: rat, in vivo
# Protocol: Ten Long-Evans female rats were divided into two groups of five each. The rats were fed Purina® lab chow mixed with CDCA or dried hog bile. The dried hog bile contains approximately 25% CDCA and approximately 40% HDCA and was mixed in the feed at four times the concentration as CDCA so that each group of rats would receive approximately 600 mg. CDCA/kg./day. Following a 2 week treatment, the 10 rats plus five control rats were sacrificed and the blood collected for liver enzyme determinations.
# [2] = Pharmacological studies employing rats: liver damage and safening effect (summary statements); format: in vivo
# Source text: The compositions are generally administered in a ratio of CDCA to HDCA in the range of from about 0.7 to about 2.0 and, preferably in the range of from about 0.8 to about 1.5. […] Hog bile generally contains from about 10 to about 50% CDCA and from about 10 to about 50% of HDCA in addition to other bile acids.
# [3] = CDCA alone, or HDCA with CDCA relative to CDCA
compound,measurement,setting,value
"C[C@H](CCC(=O)O)[C@H]1CC[C@H]2[C@@H]3[C@H](O)C[C@@H]4C[C@H](O)CC[C@]4(C)[C@H]3CC[C@]12C [CDCA, 3α, 7α-dihydroxy-5β-cholanic acid]","Bodyweights, Week 0",[1],284.6 gms
same,"Bodyweights, Week 1",[1],256.4 gms
same,"Feed Consumption, Week 0",[1],18.6 gms/da
same,"Feed Consumption, Week 2",[1],11.7 gms/da
same,periportal hepatitis,[2]; CDCA alone,slight to mild periportal hepatitis
same,alkaline phosphatase (alk. phos.) in the blood,[2]; [3],elevations
same,serum glutamic pyruvic transaminase (SGPT) in the blood,[2]; [3],elevations
same,serum glutamic-oxaloacetic transaminase (SGOT) in the blood,[2]; [3],elevations
same,nuclear enlargement of the hepatocytes,"[2]; CDCA alone, slight to mild periportal hepatitis also seen",nuclear enlargement of the hepatocytes
